Patent publication US20210322339A1, “COMBINATION THERAPY OF COENZYME Q10 AND RADIATION FOR TREATMENT OF GLIOMA” (Berg LLC, priority 2019, published 2021)

Columns and labels:
[1] = test system: C6 glioma cells; experiment: Orthotopic C6 glioma rat model, survival and MRI; type: in vivo, Wistar rats; details: long-term survivor, D27, D34, D102
Procedure: 10^6 C6 glioma cells were implanted into the right striatum of Wistar rats. Four days after implantation, animals started to receive saline (n=32) or 50 mg/kg of Coenzyme Q10 (n=21), twice a day, i.p. for 45 days. Surviving animals remained in the study until Day 102 (A) Kaplan-Meier survival curve of rats during 45 days of treatment. Over 25% of rats treated with Coenzyme Q10 survived 45 days, considered long-term survival in this model (p<0.01, log rank test). (B) Serial MRI images of a long-term survivor (D27, D34, D102). […] Far right panel is a coronal section of the long-term survivor.
10^6 C6 glioma cells were implanted into the right striatum of Wistar rats. Four days after implantation, animals started to receive saline (n=32) or 50 mg/kg of Coenzyme Q10 (n=21), twice a day, i.p. for 45 days. Surviving animals remained in the study until Day 102.

[2] = test system: C6 glioma and NIH3T3 cells; experiment: Rodent co-culture of C6-GFP glioma and NIH3T3 cells, cell number and Mitosox superoxide by flow cytometry; type: cell-based
Procedure: FIGS. 2A-2F show differential induction of mitochondrial superoxide by Coenzyme Q10 in non-cancer vs. neoplastic cells. (A) Strategy of rodent co-culture experiments using glioma and non-tumor cells. The rodent cell co-culture consisted of fibroblastic NIH3T3 and glioma C6-GFP cells. (B) NIH3T3 and C6 cells were initially seeded in 1:1 ratio. After 72 h or 144 h incubation with Coenzyme Q10 (0 μM, […], 115 μM, 230 μM, […] or 460 μM), the number of C6 or NIH3T3 cells in co-culture is generated by flow-cytometry. (C) Images were taken at 72 hrs post-dosing (0 μM, 230 μM or 460 μM) using a Leica CTR5000. […] Percentage of cells harboring positive or negative level of superoxide from C6 (GFP+) or NIH3T3 (GFP−) population are recorded by flow cytometry (D) and presented as table of summary (E). […]
(§1) We assessed the effects of Coenzyme Q10 on mitochondrial superoxide production in in vitro cocultures of glioma and non-cancerous cells, i.e. rodent C6 glioma, rodent NIH3T3 non-cancerous fibroblast cells, human U251 glioma, and primary human non-cancerous astrocytes.
For the rodent cells, NIH3T3 and C6 cells were initially seeded in a 1:1 ratio. […] Superoxide level was detected by Mitosox staining. The percentage of cells harboring positive or negative levels of superoxide from C6 (GFP+) or NIH3T3 (GFP−) populations were determined by flow cytometry.

[3] = test system: U251 glioma cells; experiment: Human co-culture U251/NHA, imaging and flow cytometry of GFP, superoxide and DAPI; type: cell-based
From the text: (§2) (A) Strategy of human co-culture experiments. In the human cell model, NHA (non-label) and U251 (GFP-labelled) cells are co-cultured in designated cell density. […] (C) Flow cytometric analysis (scatter plot) of GFP and superoxide for U251/NHA cocultures. Cell populations are characterized based by GFP intensity (GFP-negative, GFP-low, and GFP-high). […] (D) Quantification of cell percentages from (C) illustrating the increased number of GFP-low cells with increased dose. (E) Flow cytometric analysis of superoxide and DAPI for NHA-U251/NHA co-cultures treated with 0, 230, or 460 μM Coenzyme Q10.
as §1
In the human cell model, NHA (non-label) and U251 (GFP-labelled) cells were co-cultured at a designated cell density. Phase and fluorescent images of U251/NHA Co-cultures of U251/NHA cells were treated with 0 or 460 μM Coenzyme Q10 and detected by phase and fluorescent imaging. […] See FIG. 2 B. Cells were also analyzed by flow cytometric analysis (scatter plot) of GFP and superoxide for U251/NHA cocultures. Cell populations were characterized based by GFP intensity (GFP-negative, GFP-low, and GFP-high). […] Quantification of cell percentages illustrated the increased number of GFP-low cells with increased dose.

[4] = test system: NHA (normal human astrocytes); experiment: Human co-culture U251/NHA, flow cytometry of superoxide in non-cancerous cells; type: cell-based; details: 0, 230 or 460 μM
From the text: as §2, §1
In the human cell model, NHA (non-label) and U251 (GFP-labelled) cells were co-cultured at a designated cell density. Phase and fluorescent images of U251/NHA Co-cultures of U251/NHA cells were treated with 0 or 460 μM Coenzyme Q10 and detected by phase and fluorescent imaging. […] See FIG. 2 B. Cells were also analyzed by flow cytometric analysis (scatter plot) of GFP and superoxide for U251/NHA cocultures. […] Quantification of cell percentages illustrated the increased number of GFP-low cells with increased dose.

[5] = test system: C6 cells; experiment: Implanted luciferase-labeled C6 glioma rat model with radiotherapy, survival; type: in vivo, Sprague Dawley rats
Procedure: Methodology: 1×10^6 luciferase labeled C6 cells were implanted into the right striatum of Sprague Dawley rats. 4 days post-implantation, 50 rats were randomized into one of four groups:
(i) Saline injection ip bid; (12 rats)
(ii) Coenzyme Q10 50 mg/kg ip bid to continue up to 35 days; (12 rats)
(iii) 12 Gy radiotherapy (RT) to be administered on Day 8 post-implant with saline injection (12 rats); and
(iv) Coenzyme Q10+RT (14 rats).
Tumor-bearing rats were monitored until death or Day 50.

[6] = test system: high-grade glioma; details: one patient, after 6 weeks in the study
Procedure: The patients in this study were administered a CoQ10-lipid conjugate in which oxidized CoQ10 was incorporated into a mixture of mitochondria compatible lipids, enabling delivery of supraphysiological concentrations of CoQ10 to the mitochondria.
This study was a phase I trial of Coenzyme Q10 to assess for safety and tolerability of Coenzyme Q10 with vitamin K in patients with HGGs that were progressive after a bevacizumab (BEV) containing regimen. […] Therefore, this study used 10 mg vitamin K prophylactically.
Design: Modified toxicity probability interval design (mTPI) enrolling patients sequentially and monitoring through a 28-day DLT period. 1 dose escalation and 2 dose de-escalations allowed.
Key Inclusion Criteria: HGG (GB, Gliosarcoma, AA, AO) sp radiation with TMZ in recurrence after treatment with BEV. Evidence of leptomeningeal spread was allowed. >18 w KPS>60. Normal coagulation labs.
Key Exclusion Criteria: History of spontaneous or tumor related intracerebral hemorrhage. Uncontrolled coagulopathies or use of anti-coagulants.

[7] = test system: recurrent high-grade gliomas; details: patients with recurrent high-grade gliomas; cited from earlier work

COC1=C(OC)C(=O)C(C/C=C(\C)CC/C=C(\C)CC/C=C(\C)CC/C=C(\C)CC/C=C(\C)CC/C=C(\C)CC/C=C(\C)CC/C=C(\C)CC/C=C(\C)CCC=C(C)C)=C(C)C1=O [Coenzyme Q10]
tumor size over time on serial MRI after treatment was withdrawn [1]: continued shrinkage of the tumor over time
dosage of peak effect of differences in superoxide levels and cell growth ([2]; C6/NIH3T3 co-culture): 230
induction of mitochondrial superoxide versus non-neoplastic cells ([2]; C6 and U251 cells exposed to Coenzyme Q10): significantly more induction of mitochondrial superoxide than non-neoplastic cells
DAPI levels ([3]; 0, 230 or 460 μM): only significantly elevated in GFP-low cells
superoxide values in GFP-low and GFP-high cells ([3]; 0, 230 or 460 μM): increase in superoxide values
glioma cell levels by phase and fluorescent imaging ([3]; 460 μM, U251/NHA co-culture): decreased glioma cell levels with a relative sparing of NHA cells
superoxide level of U251 glioma cells compared to human astrocytes upon treatment ([3]; basal difference 1.5-fold): over 4 fold
percentage of GFP-low relative to GFP-high cells ([3]; with increasing dose, flow cytometry): increased percentage of GFP-low relative to GFP-high cells
superoxide values in GFP-negative (NHA) cells [4]: insignificant changes
median survival ([5]; Coenzyme Q10 50 mg/kg ip bid up to 35 days, 12 Gy RT on Day 8, monitored to Day 50, p<0.001): 19 days
Long Term Survivors (%) ([5]; survived for 45 days): 5/12 (42%)
glucose uptake by FDG-PET in the area of prior surgery [6]: decreased glucose uptake

Bevacizumab: a monoclonal antibody against vascular endothelial growth factor (VEGF)
response rates [7]: 32-62%
